# Results reported in patent US10660877B2 (BRISTOL-MYERS SQUIBB COMPANY, priority 2016, dated 2020).
# Experiments:
# human TLR9 = human TLR9 (Homo sapiens (Human), UniProt Q9NR96); assay: TLR9 inhibition reporter assay (HEK-Blue cells, SEAP reporter, ODN2006 stimulation); conditions: read-out: TLR9 IC50, HEK-Blue cells overexpressing human TLR9, ODN2006 5 nM;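 note: compounds tested over 0.05 nM to 50 µM, 22 h incubation, inhibition taken as SEAP signal drop from agonist plus DMSO wells toward a known inhibitor control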
# Sequence of human TLR9 (Q9NR96 26-1032): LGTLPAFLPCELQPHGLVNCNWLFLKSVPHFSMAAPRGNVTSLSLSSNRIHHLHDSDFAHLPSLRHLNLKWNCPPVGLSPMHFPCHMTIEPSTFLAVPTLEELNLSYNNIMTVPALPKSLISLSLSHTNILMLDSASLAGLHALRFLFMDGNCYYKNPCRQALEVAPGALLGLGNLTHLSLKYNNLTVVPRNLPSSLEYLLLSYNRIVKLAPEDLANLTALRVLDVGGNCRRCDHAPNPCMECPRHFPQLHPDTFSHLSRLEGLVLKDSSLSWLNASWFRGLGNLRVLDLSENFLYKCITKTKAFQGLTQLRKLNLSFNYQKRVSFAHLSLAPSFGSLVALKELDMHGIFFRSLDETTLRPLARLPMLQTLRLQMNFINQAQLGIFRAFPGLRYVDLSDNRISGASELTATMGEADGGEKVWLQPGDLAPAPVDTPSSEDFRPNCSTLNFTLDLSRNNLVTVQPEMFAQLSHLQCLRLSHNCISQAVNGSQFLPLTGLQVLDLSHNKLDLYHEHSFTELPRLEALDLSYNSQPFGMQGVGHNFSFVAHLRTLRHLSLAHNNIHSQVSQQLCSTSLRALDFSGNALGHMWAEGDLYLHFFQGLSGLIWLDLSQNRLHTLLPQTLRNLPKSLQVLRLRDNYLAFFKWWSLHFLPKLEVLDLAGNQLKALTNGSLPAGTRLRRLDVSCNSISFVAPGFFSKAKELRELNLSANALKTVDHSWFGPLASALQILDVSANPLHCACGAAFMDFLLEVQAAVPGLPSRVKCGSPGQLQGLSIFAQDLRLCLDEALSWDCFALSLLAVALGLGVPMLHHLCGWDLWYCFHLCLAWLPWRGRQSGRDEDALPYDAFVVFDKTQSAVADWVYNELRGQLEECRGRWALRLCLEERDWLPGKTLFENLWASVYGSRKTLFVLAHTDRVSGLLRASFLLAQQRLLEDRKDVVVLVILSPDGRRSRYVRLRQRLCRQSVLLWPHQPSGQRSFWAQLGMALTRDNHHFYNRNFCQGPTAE
# human TLR7 = human TLR7 (Homo sapiens (Human), UniProt Q9NYK1); assay: TLR7 inhibition reporter assay (HEK-Blue cells, SEAP reporter, gardiquimod stimulation); type: cell-based; conditions: HEK-Blue cells overexpressing human TLR7, gardiquimod 7.5 μM
# Sequence of human TLR7 (Q9NYK1 27-1049): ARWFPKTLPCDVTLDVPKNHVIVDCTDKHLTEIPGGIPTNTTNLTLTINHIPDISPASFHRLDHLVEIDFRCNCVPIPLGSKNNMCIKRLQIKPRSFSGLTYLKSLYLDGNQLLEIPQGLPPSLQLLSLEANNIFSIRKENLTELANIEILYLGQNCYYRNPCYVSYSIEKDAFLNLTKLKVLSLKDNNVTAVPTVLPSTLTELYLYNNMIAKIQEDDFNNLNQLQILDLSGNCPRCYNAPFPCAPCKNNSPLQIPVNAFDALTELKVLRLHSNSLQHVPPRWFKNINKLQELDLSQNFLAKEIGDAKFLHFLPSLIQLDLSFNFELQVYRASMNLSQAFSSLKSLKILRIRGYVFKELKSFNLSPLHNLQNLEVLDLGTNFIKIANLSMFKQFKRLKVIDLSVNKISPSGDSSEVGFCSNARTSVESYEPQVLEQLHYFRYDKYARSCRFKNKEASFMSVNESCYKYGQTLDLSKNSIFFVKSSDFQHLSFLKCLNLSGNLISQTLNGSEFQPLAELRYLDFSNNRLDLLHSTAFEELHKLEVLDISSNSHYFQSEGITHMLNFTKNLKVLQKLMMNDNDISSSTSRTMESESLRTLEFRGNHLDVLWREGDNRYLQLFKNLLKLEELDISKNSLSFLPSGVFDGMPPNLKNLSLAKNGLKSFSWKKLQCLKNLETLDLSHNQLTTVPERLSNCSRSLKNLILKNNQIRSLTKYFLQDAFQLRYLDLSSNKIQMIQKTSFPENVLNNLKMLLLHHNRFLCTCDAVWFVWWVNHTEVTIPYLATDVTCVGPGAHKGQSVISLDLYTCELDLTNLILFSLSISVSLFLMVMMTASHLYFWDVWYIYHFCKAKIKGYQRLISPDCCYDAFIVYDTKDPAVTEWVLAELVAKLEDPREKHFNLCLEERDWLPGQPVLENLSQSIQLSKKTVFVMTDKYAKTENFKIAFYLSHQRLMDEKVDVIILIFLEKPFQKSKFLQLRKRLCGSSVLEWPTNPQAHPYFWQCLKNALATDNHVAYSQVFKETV
# TLR7 = assay: In vivo mouse TLR7 PD model (gardiquimod challenge, plasma IL-6); parameters: species or system C57BL/6 mice; conditions: oral
# Description: In Vivo Mouse TLR7 and TLR9 PD Model:
# (§1) Adult male C57BL/6 mice were used for the experiments. Mice (7 to 10 per group) were randomized into different treatment groups based on body weight. Mice from the respective treatment groups were administered orally with vehicle or test compound. Thirty min after the oral administration of vehicle or test compound, mice were challenged with intraperitoneal injection of gardiquimod for TLR7 PD model and CpG-ODN for TLR9 PD model. Ninety minutes after gardiquimod injection and 120 minutes after CpG-ODN injection, mice were bled under isoflurane anaesthesia and plasma IL-6 level was estimated by using commercially available ELISA kit (BD Biosciences). At the end of experiment, mean cytokine data was plotted and one way ANOVA with Dunnett's test was performed to calculate the significance of test compound treated group vs. vehicle control group. Percent inhibition of cytokine induction was calculated for test compound treated group vs vehicle control group.
# human TLR8 = human TLR8 (Homo sapiens (Human), UniProt Q9NR97); assay: TLR8 inhibition reporter assay (HEK-Blue cells, SEAP reporter, R848 stimulation); conditions: read-out: TLR8 IC50, HEK-Blue cells overexpressing human TLR8, R848 15.9 μM;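 note: compounds tested from 0.05 nM to 50 µM, 22 h at 37 °C, SEAP measured with HEK-Blue Detection, inhibition relative to agonist plus DMSO versus a known inhibitor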
# Sequence of human TLR8 (Q9NR97 27-1041): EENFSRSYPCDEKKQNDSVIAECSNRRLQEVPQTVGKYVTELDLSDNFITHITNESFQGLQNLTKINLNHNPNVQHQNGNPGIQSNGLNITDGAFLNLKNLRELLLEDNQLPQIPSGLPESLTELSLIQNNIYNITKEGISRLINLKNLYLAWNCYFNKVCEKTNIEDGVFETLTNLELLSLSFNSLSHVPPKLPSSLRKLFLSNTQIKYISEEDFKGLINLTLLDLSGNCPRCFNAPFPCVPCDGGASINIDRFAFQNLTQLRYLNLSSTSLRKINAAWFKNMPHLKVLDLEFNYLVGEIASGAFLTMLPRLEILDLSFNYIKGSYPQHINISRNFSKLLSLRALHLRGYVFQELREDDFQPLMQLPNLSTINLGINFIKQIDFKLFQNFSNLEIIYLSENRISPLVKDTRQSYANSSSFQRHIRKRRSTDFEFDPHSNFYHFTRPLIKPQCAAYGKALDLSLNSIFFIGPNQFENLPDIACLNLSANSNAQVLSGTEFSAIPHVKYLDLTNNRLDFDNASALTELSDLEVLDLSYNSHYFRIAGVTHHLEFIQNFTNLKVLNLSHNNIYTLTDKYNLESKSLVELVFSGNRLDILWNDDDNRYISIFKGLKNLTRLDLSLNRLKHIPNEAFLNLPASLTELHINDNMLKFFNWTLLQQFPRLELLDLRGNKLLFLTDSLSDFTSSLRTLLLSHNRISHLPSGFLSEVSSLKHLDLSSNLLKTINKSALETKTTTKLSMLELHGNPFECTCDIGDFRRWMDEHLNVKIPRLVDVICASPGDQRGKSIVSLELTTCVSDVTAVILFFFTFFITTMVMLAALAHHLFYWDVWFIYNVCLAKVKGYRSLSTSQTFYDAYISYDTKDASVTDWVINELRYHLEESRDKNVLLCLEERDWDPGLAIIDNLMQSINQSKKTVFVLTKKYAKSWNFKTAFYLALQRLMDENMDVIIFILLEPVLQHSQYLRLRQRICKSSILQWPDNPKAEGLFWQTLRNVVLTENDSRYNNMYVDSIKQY
# MRL/lpr mice = assay: MRL/lpr model of systemic lupus erythematosus (proteinuria, urinary NGAL, anti-dsDNA Ab titer, lymphadenopathy); type: in vivo, mouse; conditions: oral once daily
# Description: MRL/lpr Model of Systemic Lupus Erythematosus (SLE) Male MRL/lpr mice of 12-14 weeks age were screened and randomized based on the titers of anti-dsDNA antibodies and urinary NGAL (Neutrophil Gelatinase Associated Lipocalin). Mice were treated orally, once daily for 8 weeks with vehicle or test compound. The effect of test compound on disease severity was assessed by measuring end points including proteinuria, urinary-NGAL, anti-dsDNA Ab titer, and lymphadenopathy. These end points were assessed before the start of treatment and after 4 and 8 weeks of treatment. At the end of experiment, all mice were euthanized by CO2 asphyxiation and kidney samples were subjected for histology. At the end of experiment, one way ANOVA with Dunnett's test was performed to calculate the significance of test compound treated group vs. vehicle control group. Percent reduction in disease severity was calculated for each parameter, for test compound treated group vs vehicle control group.
# TLR9 = assay: In vivo mouse TLR9 PD model (CpG-ODN challenge, plasma IL-6); parameters: species or system C57BL/6 mice; conditions: oral
# Description: as §1, with “In Vivo Mouse TLR7 and TLR9 PD Model: Adult” for “Adult”
compound,measurement,setting,value
"CNC(=O)CN1CCC(c2ccc3[nH]c(-c4cc(C)nc(C)c4)c(C(C)C)c3c2)CC1 [Example 309, 2-(4-(2-(2,6-dimethylpyridin-4-yl)-3-isopropyl-1H-indol-5-yl)piperidin-1-yl)-N-methylacetamide]",IC50,human TLR9,789 nM
same,IC50,human TLR7,2 nM
same,% inhibition of IL6,TLR7; 0.0005 mg/kg,12%
same,% inhibition of IL6,TLR7; 0.005 mg/kg,65%
same,% inhibition of IL6,TLR7; 0.05 mg/kg,89%
same,% inhibition of IL6,TLR7; 0.25 mg/kg,91%
same,IC50,human TLR8,5.5 nM
"Cc1cc(-c2[nH]c3ccc(C4CCNCC4)cc3c2C(C)C)cc(C)n1.Cl [Example 1, 2-(2,6-dimethylpyridin-4-yl)-3-isopropyl-5-(piperidin-4-yl)-1H-indole hydrochloride]",IC50,human TLR7,0.7 nM
same,% inhibition Anti-dsDNA antibody titer,MRL/lpr mice; 0.1 mg/kg,1%
same,% inhibition IL-10,MRL/lpr mice; 0.1 mg/kg,24%
same,% inhibition IL-12p40,MRL/lpr mice; 0.1 mg/kg,12%
same,% inhibition Lymphadenopathy,MRL/lpr mice; 0.1 mg/kg,3%
same,% inhibition Proteinuria,MRL/lpr mice; 0.1 mg/kg,69%
same,% inhibition Urinary NGAL,MRL/lpr mice; 0.1 mg/kg,52%
same,% inhibition Anti-dsDNA antibody titer,MRL/lpr mice; 1 mg/kg,14%
same,% inhibition IL-10,MRL/lpr mice; 1 mg/kg,32%
same,% inhibition IL-12p40,MRL/lpr mice; 1 mg/kg,26%
same,% inhibition Lymphadenopathy,MRL/lpr mice; 1 mg/kg,31%
same,% inhibition Proteinuria,MRL/lpr mice; 1 mg/kg,92%
same,% inhibition Urinary NGAL,MRL/lpr mice; 1 mg/kg,69%
same,% inhibition Anti-dsDNA antibody titer,MRL/lpr mice; 5 mg/kg,20%
same,% inhibition IL-10,MRL/lpr mice; 5 mg/kg,39%
same,% inhibition IL-12p40,MRL/lpr mice; 5 mg/kg,30%
same,% inhibition Lymphadenopathy,MRL/lpr mice; 5 mg/kg,33%
same,% inhibition Proteinuria,MRL/lpr mice; 5 mg/kg,92%
same,% inhibition Urinary NGAL,MRL/lpr mice; 5 mg/kg,72%
same,% inhibition Anti-dsDNA antibody titer,MRL/lpr mice; 20 mg/kg,53%
same,% inhibition IL-10,MRL/lpr mice; 20 mg/kg,53%
same,% inhibition IL-12p40,MRL/lpr mice; 20 mg/kg,35%
same,% inhibition Lymphadenopathy,MRL/lpr mice; 20 mg/kg,53%
same,% inhibition Proteinuria,MRL/lpr mice; 20 mg/kg,93%
same,% inhibition Urinary NGAL,MRL/lpr mice; 20 mg/kg,81%
same,% inhibition of IL6,TLR7; 0.03 mg/kg,28%
same,% inhibition of IL6,TLR7; 0.05 mg/kg,66%
same,% inhibition of IL6,TLR7; 0.5 mg/kg,98%
same,% inhibition of IL6,TLR9; 1 mg/kg,16%
same,% inhibition of IL6,TLR9; 3 mg/kg,29%
same,% inhibition of IL6,TLR9; 10 mg/kg,33%
same,% inhibition of IL6,TLR9; 30 mg/kg,38%
same,IC50,human TLR8,3.2 nM
"Cc1cc(-c2[nH]c3ccc(C4CCN(CC(=O)N(C)C)CC4)cc3c2C(C)C)cc(C)n1 [Example 308, 2-(4-(2-(2,6-dimethylpyridin-4-yl)-3-isopropyl-1H-indol-5-yl)piperidin-1-yl)-N,N-dimethylacetamide]",IC50,human TLR9,359 nM
same,IC50,human TLR7,1.5 nM
same,% inhibition of IL6,TLR7; 0.002 mg/kg,30%
same,% inhibition of IL6,TLR7; 0.008 mg/kg,47%
same,% inhibition of IL6,TLR7; 0.032 mg/kg,81%
same,% inhibition of IL6,TLR7; 0.160 mg/kg,98%
same,IC50,human TLR8,4.3 nM
